Experimental data as given in the supplement of paper PMC10307832.

Tests used:
Test in all cases: relative viability (nuclei count vs DMSO), 5 days (fraction); higher = more cells survive
[1] = tested on: UMC-11
Outline: (§1)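 Relative viability divides the nuclei count in treated wells by that in vehicle wells. Lung cancer cell lines were seeded in 1536-well plates, dosed by pin tool the next day, and fixed and stained after 5 days in one step with final 0.05% Triton X-100, 1% formaldehyde and 1 ug/ml Hoechst. Dosing was a single drug or a fixed anchor-drug dose plus five library-drug doses (not always all listed) in √10 steps, and values are medians of duplicate plates imaged at 4×.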

[2] = tested on: Calu-6
Outline: as §1

[3] = tested on: CAL-12T
Outline: as §1

[4] = tested on: LK-2
Outline: as §1

[5] = tested on: A-427
Outline: as §1

[6] = tested on: NCI-H1734
Outline: as §1

[7] = tested on: NCI-H1299
Outline: as §1

[8] = tested on: NCI-H2009
Outline: as §1

[9] = tested on: NCI-H1650
Outline: as §1

[10] = tested on: IA-LM
Outline: as §1

[11] = tested on: NCI-H1703
Outline: as §1

[12] = tested on: EBC-1
Outline: as §1

[13] = tested on: A549
Outline: as §1

`O=c1cc(-c2cccc3c2Sc2ccccc2S3)oc(N2CCOCC2)c1` + CS(=O)(=O)N1CCN(Cc2cc3nc(-c4cccc5[nH]ncc45)nc(N4CCOCC4)c3s2)CC1 [Pictilisib] (partner 1 µM) was tested, and the relative viability ([1]; first compound 0.08 µM) was 0.815, the relative viability ([1]; first compound 0.253 µM) was 1.09 and the relative viability ([1]; first compound 0.8 µM) was 0.992. The relative viability ([1]; first compound 2.53 µM) was 0.752, the relative viability ([1]; first compound 8 µM) was 1 and the relative viability ([2]; first compound 0.08 µM) was 0.86. For the same molecule, the relative viability ([2]; first compound 0.253 µM) was 0.882, the relative viability ([2]; first compound 0.8 µM) was 0.96 and the relative viability ([2]; first compound 2.53 µM) was 0.959. The relative viability ([2]; first compound 8 µM) was 0.871, the relative viability ([3]; first compound 0.08 µM) was 0.31 and the relative viability ([3]; first compound 0.253 µM) was 0.482. It also gave a relative viability ([3]; first compound 0.8 µM) of 0.418, a relative viability ([3]; first compound 2.53 µM) of 0.32 and a relative viability ([3]; first compound 8 µM) of 0.397. It also gave a relative viability ([4]; first compound 0.08 µM) of 0.608, a relative viability ([4]; first compound 0.253 µM) of 0.51 and a relative viability ([4]; first compound 0.8 µM) of 0.708. For the same molecule, the relative viability ([4]; first compound 2.53 µM) was 0.503, the relative viability ([4]; first compound 8 µM) was 0.725 and the relative viability ([5]; first compound 0.08 µM) was 0.818. The relative viability ([5]; first compound 0.253 µM) was 0.678, the relative viability ([5]; first compound 0.8 µM) was 0.634 and the relative viability ([5]; first compound 2.53 µM) was 0.623. For the same molecule, the relative viability ([5]; first compound 8 µM) was 0.973, the relative viability ([6]; first compound 0.08 µM) was 0.443 and the relative viability ([6]; first compound 0.253 µM) was 0.564. For the same molecule, the relative viability ([6]; first compound 0.8 µM) was 0.465, the relative viability ([6]; first compound 2.53 µM) was 0.351 and the relative viability ([6]; first compound 8 µM) was 0.578. For the same molecule, the relative viability ([7]; first compound 0.08 µM) was 0.679, the relative viability ([7]; first compound 0.253 µM) was 0.827 and the relative viability ([7]; first compound 0.8 µM) was 0.856. It also gave a relative viability ([7]; first compound 2.53 µM) of 0.763, a relative viability ([7]; first compound 8 µM) of 0.854 and a relative viability ([8]; first compound 0.08 µM) of 0.813. The relative viability ([8]; first compound 0.253 µM) was 0.962, the relative viability ([8]; first compound 0.8 µM) was 0.968 and the relative viability ([8]; first compound 2.53 µM) was 0.728. The relative viability ([8]; first compound 8 µM) was 0.745, the relative viability ([9]; first compound 0.08 µM) was 0.509 and the relative viability ([9]; first compound 0.253 µM) was 0.53. The relative viability ([9]; first compound 0.8 µM) was 0.507, the relative viability ([9]; first compound 2.53 µM) was 0.522 and the relative viability ([9]; first compound 8 µM) was 0.582. It also gave a relative viability ([10]; first compound 0.08 µM) of 0.278, a relative viability ([10]; first compound 0.8 µM) of 0.328 and a relative viability ([10]; first compound 2.53 µM) of 0.346. The relative viability ([10]; first compound 8 µM) was 0.315, the relative viability ([11]; first compound 0.253 µM) was 0.25 and the relative viability ([11]; first compound 0.8 µM) was 0.279. The relative viability ([11]; first compound 2.53 µM) was 0.241, the relative viability ([11]; first compound 8 µM) was 0.316 and the relative viability ([12]; first compound 0.08 µM) was 0.352. For the same molecule, the relative viability ([12]; first compound 0.253 µM) was 0.469, the relative viability ([12]; first compound 0.8 µM) was 0.342 and the relative viability ([12]; first compound 2.53 µM) was 0.401. For the same molecule, the relative viability ([12]; first compound 8 µM) was 0.298, the relative viability ([13]; first compound 0.08 µM) was 0.542 and the relative viability ([13]; first compound 0.253 µM) was 0.852. It also gave a relative viability ([13]; first compound 0.8 µM) of 0.681, a relative viability ([13]; first compound 2.53 µM) of 0.481 and a relative viability ([13]; first compound 8 µM) of 0.651.
`COc1nc(C)cnc1NS(=O)(=O)c1cccnc1-c1ccc(-c2nnco2)cc1` [Zibotentan] + C[C@@H](Oc1cc(-c2cnn(C3CCNCC3)c2)cnc1N)c1c(Cl)ccc(F)c1Cl [Crizotinib] (partner 1 µM) gave a relative viability ([1]; first compound 0.08 µM) of 0.606, a relative viability ([1]; first compound 0.253 µM) of 0.64 and a relative viability ([1]; first compound 0.8 µM) of 0.62. For the same molecule, the relative viability ([1]; first compound 2.53 µM) was 0.568, the relative viability ([2]; first compound 0.08 µM) was 0.854 and the relative viability ([2]; first compound 0.253 µM) was 0.786. It also gave a relative viability ([2]; first compound 0.8 µM) of 0.741, a relative viability ([2]; first compound 2.53 µM) of 0.752 and a relative viability ([3]; first compound 0.08 µM) of 0.667. For the same molecule, the relative viability ([3]; first compound 0.253 µM) was 0.553, the relative viability ([3]; first compound 0.8 µM) was 0.602 and the relative viability ([3]; first compound 2.53 µM) was 0.712. It also gave a relative viability ([4]; first compound 0.08 µM) of 0.259, a relative viability ([4]; first compound 0.253 µM) of 0.237 and a relative viability ([4]; first compound 0.8 µM) of 0.253. The relative viability ([4]; first compound 2.53 µM) was 0.241, the relative viability ([5]; first compound 0.08 µM) was 0.858 and the relative viability ([5]; first compound 0.253 µM) was 0.91. The relative viability ([5]; first compound 0.8 µM) was 0.904, the relative viability ([5]; first compound 2.53 µM) was 0.84 and the relative viability ([6]; first compound 0.08 µM) was 0.808. It also gave a relative viability ([6]; first compound 0.253 µM) of 0.699, a relative viability ([6]; first compound 0.8 µM) of 0.724 and a relative viability ([6]; first compound 2.53 µM) of 0.724. It also gave a relative viability ([7]; first compound 0.08 µM) of 0.949, a relative viability ([7]; first compound 0.253 µM) of 0.924 and a relative viability ([7]; first compound 0.8 µM) of 0.95. It also gave a relative viability ([7]; first compound 2.53 µM) of 0.968, a relative viability ([8]; first compound 0.08 µM) of 1.05 and a relative viability ([8]; first compound 0.253 µM) of 0.947. For the same molecule, the relative viability ([8]; first compound 0.8 µM) was 0.995, the relative viability ([8]; first compound 2.53 µM) was 1.06 and the relative viability ([9]; first compound 0.08 µM) was 1.05. The relative viability ([9]; first compound 0.8 µM) was 1.01, the relative viability ([9]; first compound 2.53 µM) was 0.925 and the relative viability ([10]; first compound 0.08 µM) was 0.809. It also gave a relative viability ([10]; first compound 0.253 µM) of 0.702, a relative viability ([10]; first compound 0.8 µM) of 1.1 and a relative viability ([10]; first compound 2.53 µM) of 0.975. It also gave a relative viability ([11]; first compound 0.08 µM) of 0.722, a relative viability ([11]; first compound 0.253 µM) of 0.756 and a relative viability ([11]; first compound 0.8 µM) of 0.864. For the same molecule, the relative viability ([11]; first compound 2.53 µM) was 0.555, the relative viability ([12]; first compound 0.08 µM) was 0.176 and the relative viability ([12]; first compound 0.253 µM) was 0.194. It also gave a relative viability ([12]; first compound 0.8 µM) of 0.202, a relative viability ([12]; first compound 2.53 µM) of 0.223 and a relative viability ([13]; first compound 0.08 µM) of 0.932. It also gave a relative viability ([13]; first compound 0.253 µM) of 0.696, a relative viability ([13]; first compound 0.8 µM) of 0.742 and a relative viability ([13]; first compound 2.53 µM) of 0.761.
Work on `O=c1cc(-c2cccc3c2Sc2ccccc2S3)oc(N2CCOCC2)c1` + C[C@@H](Oc1cc(-c2cnn(C3CCNCC3)c2)cnc1N)c1c(Cl)ccc(F)c1Cl [Crizotinib] (partner 1 µM) yielded a relative viability ([1]; first compound 0.08 µM) of 0.729, a relative viability ([1]; first compound 0.253 µM) of 0.566 and a relative viability ([1]; first compound 0.8 µM) of 0.729. For the same molecule, the relative viability ([1]; first compound 2.53 µM) was 0.644, the relative viability ([1]; first compound 8 µM) was 0.701 and the relative viability ([2]; first compound 0.08 µM) was 0.725. For the same molecule, the relative viability ([2]; first compound 0.253 µM) was 0.839, the relative viability ([2]; first compound 0.8 µM) was 0.969 and the relative viability ([2]; first compound 2.53 µM) was 0.692. For the same molecule, the relative viability ([2]; first compound 8 µM) was 0.733, the relative viability ([3]; first compound 0.08 µM) was 0.729 and the relative viability ([3]; first compound 0.253 µM) was 0.686. The relative viability ([3]; first compound 0.8 µM) was 0.85, the relative viability ([3]; first compound 2.53 µM) was 0.6 and the relative viability ([3]; first compound 8 µM) was 0.731. The relative viability ([4]; first compound 0.08 µM) was 0.196, the relative viability ([4]; first compound 0.253 µM) was 0.224 and the relative viability ([4]; first compound 0.8 µM) was 0.194. For the same molecule, the relative viability ([4]; first compound 2.53 µM) was 0.231, the relative viability ([4]; first compound 8 µM) was 0.208 and the relative viability ([5]; first compound 0.08 µM) was 0.988. The relative viability ([5]; first compound 0.253 µM) was 0.661, the relative viability ([5]; first compound 0.8 µM) was 1.02 and the relative viability ([5]; first compound 2.53 µM) was 0.86. For the same molecule, the relative viability ([5]; first compound 8 µM) was 0.791, the relative viability ([6]; first compound 0.08 µM) was 0.686 and the relative viability ([6]; first compound 0.253 µM) was 0.802. It also gave a relative viability ([6]; first compound 0.8 µM) of 0.9, a relative viability ([6]; first compound 2.53 µM) of 0.872 and a relative viability ([6]; first compound 8 µM) of 0.672. The relative viability ([7]; first compound 0.08 µM) was 0.999, the relative viability ([7]; first compound 0.253 µM) was 0.977 and the relative viability ([7]; first compound 0.8 µM) was 1. It also gave a relative viability ([7]; first compound 2.53 µM) of 0.956, a relative viability ([7]; first compound 8 µM) of 0.835 and a relative viability ([8]; first compound 0.08 µM) of 1.02. The relative viability ([8]; first compound 0.253 µM) was 1.02, the relative viability ([8]; first compound 0.8 µM) was 1.05 and the relative viability ([8]; first compound 2.53 µM) was 0.957. The relative viability ([8]; first compound 8 µM) was 1.03, the relative viability ([9]; first compound 0.08 µM) was 0.998 and the relative viability ([9]; first compound 0.253 µM) was 0.956. The relative viability ([9]; first compound 0.8 µM) was 0.945, the relative viability ([9]; first compound 2.53 µM) was 0.963 and the relative viability ([9]; first compound 8 µM) was 1.35. The relative viability ([10]; first compound 0.08 µM) was 0.899, the relative viability ([10]; first compound 0.253 µM) was 0.971 and the relative viability ([10]; first compound 0.8 µM) was 0.847. The relative viability ([10]; first compound 8 µM) was 0.9, the relative viability ([11]; first compound 0.08 µM) was 0.463 and the relative viability ([11]; first compound 0.253 µM) was 0.519. For the same molecule, the relative viability ([11]; first compound 0.8 µM) was 0.99, the relative viability ([11]; first compound 2.53 µM) was 1.01 and the relative viability ([11]; first compound 8 µM) was 0.777. It also gave a relative viability ([12]; first compound 0.08 µM) of 0.212, a relative viability ([12]; first compound 0.253 µM) of 0.175 and a relative viability ([12]; first compound 0.8 µM) of 0.156. The relative viability ([12]; first compound 2.53 µM) was 0.182, the relative viability ([12]; first compound 8 µM) was 0.26 and the relative viability ([13]; first compound 0.08 µM) was 0.706. For the same molecule, the relative viability ([13]; first compound 0.253 µM) was 1.11, the relative viability ([13]; first compound 0.8 µM) was 0.765 and the relative viability ([13]; first compound 2.53 µM) was 0.691. The relative viability ([13]; first compound 8 µM) was 0.578.
